Results reported in patent US20150126507A1, “COMPOUNDS TO TREAT HEARING LOSS” (Fate Therapeutics, Inc., priority 2013, published 2015).
Entries after “also recorded” stand apart in the source; their conditions may differ.

Key:
Type in all cases: cell-based
[1] = tested on: Atoh1 enhancer reporter in HEK293 cells; assay: Atoh1 reporter cell line, firefly luciferase normalized to renilla luciferase; conditions: Homo sapiens, HEK293, 48 h, Atoh1 reporter HEK293 cells, treated 2 days, dose response; read-out: ED50 (the source's name)
Method: FIG. 2. Dose response data for selected hits. Atoh1 reporter cells plated in 384 well plates were treated with test compounds or vehicle controls for 2 days. Firefly luciferase signal was measured and normalized to the renilla luciferase signal. Results from duplicate wells (circles and triangles) are expressed relative to normalized controls treated with DMSO.
A reporter cell line expressed in HEK293 cells in which Atoh1 enhancer elements flanked a minimal promoter driving firefly luciferase expression was created. Dose response data was generated in the reporter cell line. Atoh1 reporter cells plated in […] plates were treated with test compounds or vehicle controls for 2 days. Firefly luciferase signal was measured and normalized to the renilla luciferase signal.
For high-throughput screening, HEK293 cells were transduced with a lentiviral vector containing a concatamer of Atoh1 enhancer A and B elements, the Promega minP minimal promoter, firefly luciferase coding sequence and hygromycin selectable marker. After selection, the cells were transduced with a second lentiviral vector containing the EF1α constitutive promoter, Renilla luciferase and puromycin selectable marker. A clonal derivative expressing both transgenes was expanded and banked for screening.
A screening assay was done by plating 8000 cells/well in 384 well plates, and treating for 48 hours with 1 and 10 μM test compound in DMSO, vehicle control, or the GSK-3B inhibitor, BIO, as a positive control. Firefly and Renilla luciferase were measured sequentially using Dual-Glo (Promega) with an Envision multi-label plate reader (Perkin Elmer). Data were analyzed after normalizing firefly luciferase signals to Renilla luciferase signals. A primary screen of 50,000 diverse compounds identified 140 hits. […] 10 of these 41 hits were selected for further analysis
To confirm activity in the 10 selected hits, the test compounds were reassayed at 3.3×10^−9, 1×10^−8, 3.3×10^−8, 1×10^−7, 3.3×10^−7, 1×10^−6, 3.3×10^−6 and 1×10^−5 molar concentrations. […] Results from duplicate wells (circles and triangles) are expressed relative to normalized controls treated with DMSO.

[2] = tested on: Atoh1 expression in P5 rat cochlear explants; assay: Cochlear explant assay, Atoh1 expression by qRT-PCR after tobramycin pretreatment; conditions: 1 mM tobramycin pretreatment, then compound vs DMSO
Method: FIG. 3. Postnatal day 5 rat cochleae were cultured for 2 days with 1 mM tobramycin and then 3 days with test compound or vehicle. Relative Atoh1 expression was measured by qRT-PCR. Results are expressed as average±S.D. for >7 individual cochleae per treatment group. * p<0.05, student's t-test.
The ten selected hits of Example 43 were assayed for the ability to induce Atoh1 expression in primary cultured cochlear explants from the neonatal rat. Postnatal day 5 (P5) rat cochlear explants were cultured with the ototoxic aminoglycoside antibiotic, tobramycin (1 mM), for 3 days prior to drug testing, as an in vitro model of drug-induced hearing loss. […] See, e.g., Ruedi, et al., Larynoscope 62:333-357 (1952). After the 3 day tobramycin pretreatment, the cochlear explants were cultured with the compounds of Example 43 or DMSO vehicle for an additional 2 days. Atoh1 expression levels, measured by qRT-PCR and normalized to ribosomal 18S expression, after hit compound treatments are shown in FIG. 3.

[3] = tested on: Atoh1-GFP mouse cochlear explants; assay: Atoh1-GFP reporter mouse cochlear explants, confocal imaging and immunostaining; conditions: 40 μM, 3 days
Method: FIG. 4. Confocal images of E13 and P0 Atoh1-GFP mouse cochlear explants cultured for 3 days in 40 μM Compound 4 or DMSO and immunostained with antibodies against the supporting cell marker Sox2 (red), the hair cell marker MyosinVIIa (Myo7a, blue) and an anti-GFP antibody (green). […] Scale bars: A and B (50 μm); C and E (500 μm); D and F (25 μm).
To identify which cells expressed Atoh1 after hit compound treatment, we utilized cochlear explants from embryonic and postnatal Atoh1-GFP reporter mice. See, e.g., Lumpkin, et al., Gene Expression Patterns 3:389-395 (2003). Both embryonic and neonatal cochleae were used in order to identify if there was a temporal window in which tissue was more responsive to drug treatment.

Atoh1 reporter cell line = assay: Transcriptional profiling of Atoh1 reporter cell line by gene profiling microarray; conditions: 5 μM, 2 days, vs DMSO
Method: FIG. 5. An Atoh1 reporter cell line was treated with 5 μM Compound 4 or DMSO for 2 days. Gene expression was measured with a gene profiling microarray and plotted.
In an attempt to identify the signaling pathway by which Compound 4 induces Atoh1 expression, transcriptional profiling of the Atoh1 reporter cell line was compared after treatment with Compound 4 or DMSO control. The Atoh1 reporter cell line was treated with 5 μM or Compound 4 or DMSO for 2 days. […] An upregulation of endogenous Atoh1 with Compound 4 treatment in the reporter line was not observed, presumably because the overexpressed reporter sequence outcompeted the native Atoh1 regulatory domain. […] See, e.g., Martinez, et al., Toxicol. Sci. 82:429-435, (2004); Ito, et al., J. Immunotoxicol. 3(1):21-30 (2006); and Sun, et al., Nucleic Acids Res. 32(15):4512-4523 (2004). […] See, e.g., Qian, et al., J. Immunol. 166:2553-2561 (2001) and Kimura, et al., Biochem. Biophys. Res. Comm. 264:86-92 (1999).

[4] = P0 Atoh1-GFP mouse cochlear explants

In the case of `Cc1c(C(=O)Nc2nccs2)oc2ccccc12` [Compound 4], the EC50 [1] is reported as 1.3 µM, the “Atoh1 expression by qRT-PCR normalized to ribosomal 18S” value [2] is reported as “largest stimulation of Atoh1 expression” and the “averaged total length of the organ of Corti vs DMSO” value ([3]; Atoh1-GFP mouse cochlear explants) is reported as “no difference”. For the same molecule, the “GFP+ hair cells in E13 explants vs DMSO control” value ([3]; E13 Atoh1-GFP mouse cochlear explants) was “greater number of GFP-positive hair cells; also recorded: increase in GFP+ hair cells”, the “GFP+ hair cells with Sox2+ nuclei in P0 explants” value [3, 4] was “numerous ectopic GFP+ hair cells with weak nuclear Sox2 expression; also recorded: numerous GFP+/MyosinVIIa+ cells were observed to have Sox2+ nuclei” and the “GFP-positive hair cell domain in P0 explants vs DMSO control” value [3, 4] was “expansion in the GFP+ hair cell domain; also recorded: expansion of the GFP-positive hair cell domain”. The “upregulation of annotated genes (EGR1, SCIN, CYP1A1, CYP1B1, TACT, MAFF)” value (Atoh1 reporter cell line) was “greater than 3 fold” and the “upregulation of endogenous Atoh1” value (Atoh1 reporter cell line) was “not observed”.
